Common to all, as to type: in vivo
Data set [1] relates to C57BL/6J mice. Briefly: Pharmacological Test-1: 3 times-daily instillation for 2 weeks, lens elasticity. The following applies: 3 times per day for 14 days; for Lens elasticity improvement: 0.03% (w/v) sample, 2.5 μL/eye, 9-month-old mice, vs vehicle control; for Lens elasticity effect compared with the vehicle control group (in words): 0.03% sample group. How it is done: The effect of 3 times-daily instillation of Compound 1 for 2 weeks on the lens elasticity was examined. The tests were conducted with reference to the methods described in InvestOphthalmol Vis Sci, 57, 2851-2863, 2016.
A vehicle comprising 1.0% (w/v) of polyoxyl 35 castor oil (hereinafter also referred to as “CO35”), 0.1% (w/v) of ethyl pyruvate, 0.269% (w/v) of sodium dihydrogenphosphate monohydrate (NaH2 PO4.H2O), 0.433% (w/v) of disodium hydrogenphosphate (Na2 HPO4), 0.2% (w/v) of hydroxypropyl methylcellulose, 0.5% (w/v) of NaCl, and purified water (appropriate amount) was prepared.
Compound 1 was stirred with the addition of the vehicle to give a 0.03% (w/v) solution. After preparation, it was refrigerated.
EVO6 was stirred with the addition of the vehicle to give a 0.03% (w/v) solution, which was for comparison in the test for Compound 1. After preparation, it was refrigerated.
1) Each test sample (2.5 μL/eye) was instilled into both eyes of 9-month-old C57BL/6J mice with a Pipetman 3 times per day (around 9:00, 13:00 and 17:00) for 14 days.
(§1) 2) After the final instillation, the mice were euthanized by carbon dioxide inhalation, and then the eyeballs were extracted and rinsed with Hank's balanced salt solution (HBSS).
(§2) 3) The sclera near the optic nerve was cut with a razor, the lens was removed through the incision, and the removed lens was immersed in HBSS.
(§3) 4) The lens was placed on a glass slide, and an all-in-one fluorescence microscope BZ-9000 (Keyence) was used to capture an image of the lens (Image a).
(§4) 5) Next, one cover glass (Corning(registered trade mark) 22×22 mm Square) was placed on the lens, and an image in which the thickness of the lens changed due to the weight was similarly captured (Image b).
6) A change in the lens diameter was calculated from the following Equation 1 wherein the lens diameter of Image a is subtracted from the lens diameter of Image b. Then, the lens elasticity improvement of each sample group compared with the vehicle control group was calculated from Equation 2 described below. The mean value of the vehicle control group was based on 8 eyes, and the mean value of each of the sample groups of Compound 1 and EVO6 was based on 10 eyes.
(§5) Change in lens diameter=Lens diameter in Image b of each test sample−Lens diameter in Image a of each test sample Equation 1
(§6) Lens elasticity improvement of each sample group=Mean change in lens diameter of each Test sample group−Mean change in lens diameter of Vehicle control group Equation 2

Data set [2] relates to C57BL/6J mice. As to the kind of experiment: Pharmacological Test-2: once-daily instillation of Compound 1 for 2 weeks, lens elasticity. The following applies: once per day for 14 days; for Lens elasticity improvement: 2.5 μL/eye, 9-month-old mice, vs vehicle control. How it is done:
The effect of once-daily instillation of Compound 1 for 2 weeks on the lens elasticity was examined.
(§7) A vehicle comprising 1.0% (w/v) of CO35, 0.1% (w/v) of ethyl pyruvate, 0.269% (w/v) of sodium dihydrogenphosphate monohydrate (NaH2 PO4.H2O), 0.433% (w/v) of disodium hydrogenphosphate (Na2HPO4), 0.2% (w/v) of hydroxypropyl methylcellulose, 0.5% (w/v) of NaCl, and purified water (appropriate amount) was prepared.
To Compound 1 was added the vehicle to give a 0.1% (w/v) solution. The resulting 0.1% (w/v) solution was diluted with the vehicle to give a 0.03% (w/v) solution. Further, the resulting 0.03% (w/v) solution was diluted with the vehicle to give a 0.01% (w/v) solution. After preparation, all were frozen.
1) Each test sample (2.5 μL/eye) was instilled into both eyes of 9-month-old C57BL/6J mice with a Pipetman once per day (around 9:00) for 14 days.
as §1, §2, §3, §4
6) A change in the lens diameter was calculated from Equation 1 wherein the lens diameter of Image a is subtracted from the lens diameter of Image b, as described below. Then, the lens elasticity improvement of each sample group compared with the vehicle control group was calculated from Equation 2 described below. The mean value of the vehicle control group was based on 9 eyes, and the mean value of each of the sample groups of Compound 1 was based on 10 eyes.
as §5, §6

The subject of data set [3] is C57BL/6J mice. Briefly: Pharmacological Test-3: once-daily instillation of Compounds 1, 2 and 3 for 2 weeks, lens elasticity. The following applies: 0.03% sample, 2.5 μL/eye, once per day for 14 days, 8-month-old mice, vs vehicle control. How it is done: The effect of once-daily instillation of each of Compounds 1, 2 and 3 for 2 weeks on the lens elasticity was examined.
as §7
Each of Compounds 1 and 2 was stirred with the addition of the vehicle to give a 0.1% (w/v) solution.
To Compound 3 was added the vehicle to give a 0.1% (w/v) suspension. The resulting 0.1% (w/v) suspension was diluted with the vehicle to give a 0.03% (w/v) solution. Further, the resulting 0.03% (w/v) solution was diluted with the vehicle to give a 0.01% (w/v) solution.
After preparation, all were frozen.
1) Each test sample (2.5 μL/eye) was instilled into both eyes of 8-month-old C57BL/6J mice with a Pipetman once per day (around 9:00) for 14 days.
as §1, §2, §3, §4
6) A change in the lens diameter was calculated from Equation 1 wherein the lens diameter of Image a is subtracted from the lens diameter of Image b, as described below. Then, the lens elasticity improvement of each sample group compared with the vehicle control group was calculated from Equation 2 described below. The mean value of each group was based on 10 eyes.
as §5, §6

A further data set deals with Japanese White rabbit. As to the kind of experiment: Ocular irritation test-1 (McDonald-Shadduck method). The settings on record: 50 μL/eye, 10 times at 30-minute intervals. More on the design: key to Irritation Score of anterior segment of the eye: Discharge / Irritation Score of anterior segment of the eye: Anterior chamber flare / Irritation Score of anterior segment of the eye: Light reflex / Irritation Score of anterior segment of the eye: Iris / Irritation Score of anterior segment of the eye: Corneal opacity / Irritation Score of anterior segment of the eye: Corneal angiogenesis / Irritation Score of anterior segment of the eye: Corneal epithelial disorder / Irritation Score of anterior segment of the eye: Conjunctival hyperemia / Irritation Score of anterior segment of the eye: Conjunctival edema: —: No noteworthy findings. How it is done: A vehicle eye drop and a 0.03% (w/v) Compound 1 eye drop were prepared in the same manner as Preparation of Test sample in Pharmacological test-1.
The vehicle eye drop, and the 0.03% (w/v) Compound 1 eye drop were each instilled into one eye of a Japanese White rabbit at a dose volume of 50 μL/eye with pipette 10 times at 30-minute intervals. One hour after the final instillation, ocular irritation of anterior segment of the eye was evaluated using a slit lamp according to the McDonald-Shadduck method.
Observation for corneal epithelial disorder was conducted 3 hours after the final instillation.
The ocular irritation of anterior segment of the eye was scored according to the following criteria: • 1: slight; +2: moderate; +3: severe

Data set [4] has as its system C57BL/6J mice. As to the kind of experiment: Reference Pharmacological Test 1: effect of EV06 instillation on lens elasticity. The following applies: 3 times per day for 15 to 17 days; for Lens elasticity improvement: 2.5 μL/eye, 8-month-old mice, vs vehicle control. How it is done: The effect of lipoic acid choline ester (EV06) on the lens elasticity was examined. The tests were conducted with reference to the methods described in InvestOphthalmol Vis Sci, 57, 2851-2863, 2016. EV06 is a compound represented by the following formula: A vehicle comprising 0.1% (w/v) of ethyl pyruvate, 0.269% (w/v) of sodium dihydrogenphosphate monohydrate (NaH2PO4.H2O), 0.433% (w/v) of disodium hydrogenphosphate (Na2HPO4), 0.2% (w/v) of hydroxypropyl methylcellulose, 0.5% (w/v) of NaCl, and purified water (appropriate amount) was prepared. EVO6 was sonicated with the addition of the vehicle to prepare a 5% (w/v) suspension. The resulting 5% (w/v) suspension was diluted with the vehicle to prepare a 1.5% (w/v) solution. Further, the resulting 1.5% (w/v) solution was diluted with the vehicle to prepare a 0.5% (w/v) solution. The total amount of each sample to be used in one day was prepared before use. 1) Each test sample (2.5 μL/eye) was instilled into the right eye of 8-month-old C57BL/6J mice with a Pipetman 3 times per day (around 9:00, 13:00 and 17:00) for 15 to 17 days. 2) After the final instillation, the mice were euthanized by carbon dioxide inhalation, and then the eyeballs were extracted and rinsed with Hank's balanced salt solution (HBSS). 3) The sclera near the optic nerve was cut with a razor, the lens was removed through the incision, and the removed lens was immersed in HBSS. 4) The lens was placed on a glass slide, and an all-in-one fluorescence microscope BZ-9000 (Keyence) was used to capture an image of the lens (Image a). 5) Next, one cover glass (Corning^(registered trade mark) 22×22 mm Square) was placed on the lens, and an image in which the thickness of the lens changed due to the weight was similarly captured (Image b). 6) A change in the lens diameter was calculated from Equation 1 wherein the lens diameter of Image a is subtracted from the lens diameter of Image b, as described below. Then, the lens elasticity improvement of each sample group compared with the vehicle control group was calculated from Equation 2 described below. The mean of the vehicle control group was based on 6 eyes and the mean of each EV06 sample group was based on 12 eyes. Change in lens diameter=Lens diameter in Image b of each test sample−Lens diameter in Image a of each test sample Equation 1 Lens elasticity improvement of each sample group=Mean change in lens diameter of each EV06 sample group−Mean change in lens diameter of Vehicle control group equation 2

Data set [5] concerns C57BL/6J mice. As to the kind of experiment: Pharmacological Test-5: once-daily instillation of Compounds 5, 6 and 7 for 2 weeks, lens elasticity. The following applies: once per day for 14 days. How it is done:
The effect of once-daily instillation of each of Compounds 5, 6, and 7 for 2 weeks on the lens elasticity was examined.
as §7
Compound 5 was stirred with the addition of the vehicle to give a 0.1% (w/v) suspension. The resulting 0.1% (w/v) suspension was diluted with the vehicle to give a 0.03% (w/v) suspension.
Compound 6 was stirred with the addition of the vehicle to give a 0.1% (w/v) suspension. The resulting 0.1% (w/v) a suspension was diluted with the vehicle to give a 0.03% (w/v) suspension.
Compound 7 was stirred with the addition of the vehicle to give a 0.1% (w/v) suspension.
After preparation, all were refrigerated.
EVO6 was stirred with the addition of the vehicle to give a 0.03% (w/v) solution, which was for comparison in the test for Compounds 5, 6 and 7. After preparation, it was refrigerated.
1) Each test sample (2.5 μL/eye) was instilled into both eyes of 8-month-old C57BL/6J mice with a Pipetman once per day (around 13:30) for 14 days.
as §1, §2, §3, §4
6) A change in the lens diameter was calculated from Equation 1 wherein the lens diameter of Image a is subtracted from the lens diameter of Image b, as described below. Then, the lens elasticity improvement of each sample group compared with the vehicle control group was calculated from Equation 2 described below. The mean value of each group was based on 8 eyes.
as §5, §6

Setting [6] is: 0.03% eye drop, 1 hour after the final instillation.

In the case of `OCCCCC[C@@H](S)CCS` [Compound 1, (R)-6,8-Dimercaptooctan-1-ol], in the data set with C57BL/6J mice [1], the Lens elasticity improvement came out at 53.8 μm and the “Lens elasticity effect compared with the vehicle control group (in words)” value is “potent elasticity improving effect”. In the data set with C57BL/6J mice [2] (0.01% (w/v) sample), this molecule returned a Lens elasticity improvement of 17.5 μm. In the data set on C57BL/6J mice [2] (0.03% (w/v) sample), this molecule returned a Lens elasticity improvement of 53.0 μm. Further, the Lens elasticity improvement in the data set with C57BL/6J mice [2] (0.1% (w/v) sample) came to 63.3 μm. Further, in the data set with C57BL/6J mice [2] (all of the concentrations of 0.01%, 0.03% and 0.1%), the “Lens elasticity effect (in words)” value is listed as “showed an elasticity improving effect”. Besides, in the data set on C57BL/6J mice [3], the Lens elasticity improvement was 55.5 μm. Besides, in the data set on Japanese White rabbit (0.03% (w/v) eye drop), the “Irritation in anterior segment of the eye (in words)” value is on record as “No irritation was observed”. In the data set on Japanese White rabbit (setting [6]), the “Irritation Score of anterior segment of the eye: Anterior chamber flare” value was “—”, the “Irritation Score of anterior segment of the eye: Conjunctival edema” value was “—”, the “Irritation Score of anterior segment of the eye: Corneal angiogenesis” value is “—” and the “Irritation Score of anterior segment of the eye: Corneal opacity” value is listed as “—”. In addition, in the data set on Japanese White rabbit (setting [6]), the “Irritation Score of anterior segment of the eye: Discharge” value is “—”, the “Irritation Score of anterior segment of the eye: Iris” value is “—” and the “Irritation Score of anterior segment of the eye: Light reflex” value was “—”. In the data set on Japanese White rabbit (0.03% eye drop, 1 hour after the final instillation, scale +1 slight, +2 moderate, +3 severe), the “Irritation Score of anterior segment of the eye: Conjunctival hyperemia” value is on record as “—”. Also, in the data set with Japanese White rabbit (0.03% eye drop, 3 hours after the final instillation), the “Irritation Score of anterior segment of the eye: Corneal epithelial disorder” value is recorded as “—”.
As for `C[N+](C)(C)CCOC(=O)CCCC[C@@H]1CCSS1.[Cl-]` [EV06, lipoic acid choline ester, reference compound], the Lens elasticity improvement in the data set with C57BL/6J mice [4] (0.5% (w/v) sample) was 28.8 μm; in the data set on C57BL/6J mice [4] (1.5% (w/v) sample) it was 47.3 μm; in the data set with C57BL/6J mice [4] (5% (w/v) sample) it was 48.7 μm; with C57BL/6J mice [1], 3.6 μm; in the data set on C57BL/6J mice [5] (0.03% sample, 2.5 μL/eye, 8-month-old mice, vs vehicle control), 3.1 μm. For the same molecule, the “Lens elasticity effect compared with the vehicle control group (in words)” value is on record as “elasticity improving effect” in the data set on C57BL/6J mice [4] (0.5%, 1.5% and 5% groups); “no improvement in lens elasticity” in the data set on C57BL/6J mice [1]. Further, the “Lens elasticity effect (in words)” value with C57BL/6J mice [5] (0.03% sample group) is reported as “no elasticity improving effect”.

Values taken from patent US20230346744A1, “SULFUR-CONTAINING COMPOUND USEFUL FOR TREATING OR PREVENTING PRESBYOPIA” (SANTEN PHARMACEUTICAL CO., LTD., priority 2020, published 2023).
